Where “and” joins values, the source holds several entries; their conditions need not be identical. Equal entries are not always repeated. Where two headings read alike, the source gives them in different places.
Assays:
human BRS-3 [1] = target: T1, human BRS-3 (Homo sapiens, UniProt P32247); experiment: Binding studies, inhibition of 125I-[D-Tyr6,β-Ala11,Phe13,Nle14]Bn-; conditions: hBRS-3/BALB cells
T1 sequence (P32247 1-399): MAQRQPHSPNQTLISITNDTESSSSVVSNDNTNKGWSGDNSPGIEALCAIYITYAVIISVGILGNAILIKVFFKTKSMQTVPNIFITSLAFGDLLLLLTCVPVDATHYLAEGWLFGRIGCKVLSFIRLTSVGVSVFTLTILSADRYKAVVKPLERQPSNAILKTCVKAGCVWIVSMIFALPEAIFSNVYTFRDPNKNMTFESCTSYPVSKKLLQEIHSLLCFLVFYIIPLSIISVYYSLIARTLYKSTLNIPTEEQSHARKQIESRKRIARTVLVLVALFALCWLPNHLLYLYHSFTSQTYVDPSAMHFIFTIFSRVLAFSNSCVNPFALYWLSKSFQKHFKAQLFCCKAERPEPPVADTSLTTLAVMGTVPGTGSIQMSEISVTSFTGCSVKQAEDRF

human BRS-3 [2] = target: T1, human BRS-3; experiment: [3H]Inositol phosphate generation; format: cell-based; conditions: for EC50: read-out: EC50 Human BRS-3 hBRS-3/BALB, [3H]IP production, 60 min, 37°C
human GRPR = human GRPR (Homo sapiens, UniProt P30550); experiment: [3H]Inositol phosphate generation, hGRPR/BALB cells; format: cell-based; conditions: read-out: EC50 Human GRPR hGRPR/BALB; [3H]IP production, 60 min, 37°C
human NMBR = human NMBR (Homo sapiens, UniProt P28336); experiment: [3H]Inositol phosphate generation, hNMBR/BALB cells; format: cell-based; conditions: read-out: EC50 Human NMBR hNMBR/BALB; [3H]IP production, 60 min, 37°C
rat BRS-3 = target: T2, rat BRS-3 (Rattus norvegicus, UniProt Q8K418); experiment: [3H]Inositol phosphate generation, rBRS-3/BALB cells; format: cell-based; conditions: for EC50: read-out: EC50 Rat BRS-3 rBRS-3/BALB, [3H]IP production, 60 min, 37°C
T2 sequence (Q8K418 1-399): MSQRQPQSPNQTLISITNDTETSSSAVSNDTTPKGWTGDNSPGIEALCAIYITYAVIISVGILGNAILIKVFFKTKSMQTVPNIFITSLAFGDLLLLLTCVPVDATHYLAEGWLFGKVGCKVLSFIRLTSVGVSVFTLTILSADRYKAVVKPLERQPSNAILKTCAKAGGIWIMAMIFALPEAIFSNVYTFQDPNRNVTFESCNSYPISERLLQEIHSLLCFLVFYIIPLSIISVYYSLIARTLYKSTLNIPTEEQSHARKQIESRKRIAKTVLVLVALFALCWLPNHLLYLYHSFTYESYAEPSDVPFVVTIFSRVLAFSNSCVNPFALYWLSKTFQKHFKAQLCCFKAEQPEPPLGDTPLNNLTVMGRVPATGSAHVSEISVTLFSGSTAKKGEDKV

rat GRPR = rat GRPR (Rattus norvegicus, UniProt P52500); experiment: [3H]Inositol phosphate generation, rGRPR/AR42J cells; format: cell-based; conditions: read-out: EC50 Rat GRPR rGRPR/AR42J; [3H]IP production, 60 min, 37°C
rat NMBR = target: T3, rat NMBR (Rattus norvegicus, UniProt P24053); experiment: [3H]Inositol phosphate generation, rNMBR/BALB cells; format: cell-based; conditions: read-out: EC50 Rat NMBR rNMBR/BALB; [3H]IP production, 60 min, 37°C
T3 sequence (P24053 1-390): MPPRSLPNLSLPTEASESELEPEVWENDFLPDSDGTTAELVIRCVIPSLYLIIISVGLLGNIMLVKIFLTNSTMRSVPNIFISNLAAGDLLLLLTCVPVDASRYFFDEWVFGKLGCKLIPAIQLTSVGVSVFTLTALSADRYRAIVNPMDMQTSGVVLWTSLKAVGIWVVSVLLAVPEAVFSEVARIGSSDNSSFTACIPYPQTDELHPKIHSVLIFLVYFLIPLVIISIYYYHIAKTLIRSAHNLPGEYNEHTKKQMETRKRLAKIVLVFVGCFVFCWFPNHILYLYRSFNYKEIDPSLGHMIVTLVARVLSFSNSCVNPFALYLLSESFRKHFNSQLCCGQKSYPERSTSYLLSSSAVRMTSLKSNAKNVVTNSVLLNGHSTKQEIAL

mouse BRS-3 = target: T4, mouse BRS-3 (Mus musculus, UniProt O54798); experiment: [3H]Inositol phosphate generation, mBRS-3/BALB cells; format: cell-based; conditions: for EC50: read-out: EC50 Mouse BRS-3 mBRS-3/BALB, [3H]IP production, 60 min, 37°C
T4 sequence (O54798 1-399): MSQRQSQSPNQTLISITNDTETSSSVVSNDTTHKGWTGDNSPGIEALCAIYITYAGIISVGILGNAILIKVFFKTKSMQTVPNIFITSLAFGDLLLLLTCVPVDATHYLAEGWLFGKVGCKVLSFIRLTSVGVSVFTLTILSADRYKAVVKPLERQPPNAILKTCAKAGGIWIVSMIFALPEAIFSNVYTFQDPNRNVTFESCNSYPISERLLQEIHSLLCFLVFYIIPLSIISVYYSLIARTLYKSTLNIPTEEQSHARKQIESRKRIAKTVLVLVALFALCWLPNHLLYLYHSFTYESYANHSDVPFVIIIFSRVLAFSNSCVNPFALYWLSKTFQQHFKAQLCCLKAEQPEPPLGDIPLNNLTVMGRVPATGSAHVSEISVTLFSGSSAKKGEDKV

mouse GRPR = mouse GRPR (Mus musculus, UniProt P21729); experiment: [3H]Inositol phosphate generation, mGRPR/BALB cells; format: cell-based; conditions: read-out: EC50 Mouse GRPR mGRPR/BALB; [3H]IP production, 60 min, 37°C
mouse NMBR = target: T5, mouse NMBR (Mus musculus, UniProt O54799); experiment: [3H]Inositol phosphate generation, mNMBR/BALB cells; format: cell-based; conditions: read-out: EC50 Mouse NMBR mNMBR/BALB; [3H]IP production, 60 min, 37°C
T5 sequence (O54799 1-390): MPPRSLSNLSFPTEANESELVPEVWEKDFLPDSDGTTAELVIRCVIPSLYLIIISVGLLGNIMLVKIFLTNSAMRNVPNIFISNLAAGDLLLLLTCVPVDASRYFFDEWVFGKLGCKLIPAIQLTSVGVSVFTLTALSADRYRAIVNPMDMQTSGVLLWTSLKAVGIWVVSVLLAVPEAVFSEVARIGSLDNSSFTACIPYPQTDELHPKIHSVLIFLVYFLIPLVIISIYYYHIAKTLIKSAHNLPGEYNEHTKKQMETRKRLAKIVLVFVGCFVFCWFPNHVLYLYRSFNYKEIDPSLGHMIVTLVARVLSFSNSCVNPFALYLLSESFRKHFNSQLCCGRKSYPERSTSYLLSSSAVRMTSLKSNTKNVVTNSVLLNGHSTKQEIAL

mouse GRPR, sequence (P21729 whole entry): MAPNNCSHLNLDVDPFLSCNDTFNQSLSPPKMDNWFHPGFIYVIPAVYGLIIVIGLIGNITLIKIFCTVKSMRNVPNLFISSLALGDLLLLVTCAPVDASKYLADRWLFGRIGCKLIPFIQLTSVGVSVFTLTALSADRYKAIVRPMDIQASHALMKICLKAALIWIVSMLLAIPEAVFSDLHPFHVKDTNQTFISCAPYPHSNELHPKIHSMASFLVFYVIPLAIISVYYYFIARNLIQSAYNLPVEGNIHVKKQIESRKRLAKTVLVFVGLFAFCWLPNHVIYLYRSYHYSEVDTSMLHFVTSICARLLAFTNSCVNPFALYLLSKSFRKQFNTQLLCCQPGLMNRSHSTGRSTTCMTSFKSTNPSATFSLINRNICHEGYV
human GRPR, sequence (P30550 whole entry): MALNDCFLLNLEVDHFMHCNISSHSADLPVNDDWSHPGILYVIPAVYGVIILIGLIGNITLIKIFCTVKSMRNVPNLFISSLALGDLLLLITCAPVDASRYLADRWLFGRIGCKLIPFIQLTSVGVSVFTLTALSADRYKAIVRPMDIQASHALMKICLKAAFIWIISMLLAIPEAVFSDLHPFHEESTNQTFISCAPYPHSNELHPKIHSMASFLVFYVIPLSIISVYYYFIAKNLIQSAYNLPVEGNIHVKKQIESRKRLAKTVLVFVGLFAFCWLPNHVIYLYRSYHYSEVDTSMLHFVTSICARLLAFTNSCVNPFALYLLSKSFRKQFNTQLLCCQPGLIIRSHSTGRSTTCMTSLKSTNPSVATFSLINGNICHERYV
rat GRPR, sequence (P52500 whole entry): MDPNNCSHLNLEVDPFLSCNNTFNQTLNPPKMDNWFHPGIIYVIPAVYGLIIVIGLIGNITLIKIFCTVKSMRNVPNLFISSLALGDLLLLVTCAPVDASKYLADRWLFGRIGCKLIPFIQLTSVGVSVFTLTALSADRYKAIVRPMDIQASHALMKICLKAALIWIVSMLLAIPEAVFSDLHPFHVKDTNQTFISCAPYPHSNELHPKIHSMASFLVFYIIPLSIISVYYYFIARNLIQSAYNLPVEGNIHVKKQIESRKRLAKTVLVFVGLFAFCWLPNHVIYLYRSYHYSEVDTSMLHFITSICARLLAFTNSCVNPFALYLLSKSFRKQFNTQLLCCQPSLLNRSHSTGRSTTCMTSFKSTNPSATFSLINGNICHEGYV
human NMBR, sequence (P28336 whole entry): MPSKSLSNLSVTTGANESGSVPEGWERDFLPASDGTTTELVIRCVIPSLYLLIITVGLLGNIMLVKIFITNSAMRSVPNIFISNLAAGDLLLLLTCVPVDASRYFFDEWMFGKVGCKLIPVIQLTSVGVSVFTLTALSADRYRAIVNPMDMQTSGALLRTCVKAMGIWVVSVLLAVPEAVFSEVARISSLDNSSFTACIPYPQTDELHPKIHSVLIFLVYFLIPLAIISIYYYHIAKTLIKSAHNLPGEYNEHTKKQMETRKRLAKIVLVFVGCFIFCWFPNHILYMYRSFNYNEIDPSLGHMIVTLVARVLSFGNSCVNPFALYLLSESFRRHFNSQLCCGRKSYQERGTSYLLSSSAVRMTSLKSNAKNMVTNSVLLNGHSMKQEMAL

Cc1ccc(Oc2cccc(CC(=O)N3CCNc4nc(C(F)(F)F)ccc4[C@H]3CC(=O)O)c2)cn1 [9F, [(5R)-4-((3-[(6-methylpyridin-3-yl)oxy]phenyl)acetyl)-8-(trifluoromethyl)-2,3,4,5-tetrahydro-1H-pyrido[2,3-e][1, 4]diazepin-5-yl]acetic acid]
lower affinity compared with 9G (human BRS-3 [1]): 1.7-13 fold
lower potency than 9G or 9D (human BRS-3 [2]; hBRS-3/BALB cells): 4.3 fold
EC50 (human BRS-3 [2]): 0.039 µM
EC50 (human BRS-3 [2]; listed as 9 F): 0.0396 ± 0.001 µM
EC50 (human GRPR): > 3 µM
EC50 (human NMBR): > 3 µM
less potent than MK-5046 (rat BRS-3; rBRS-3/BALB cells): 8 fold
lower potency than 9G and 3F (rat BRS-3; rBRS-3/BALB cells): 7.8 fold
EC50 (rat BRS-3): 0.295 ± 0.0005 µM
EC50 (rat GRPR): > 3 µM
EC50 (rat NMBR): > 3 µM
less potent than MK-5046 (mouse BRS-3; mBRS-3/BALB cells): 5 fold
lower potency compared to 9D or 9G (mouse BRS-3; mBRS-3/BALB cells): 4.3 fold
EC50 (mouse BRS-3): 0.0868 ± 0.0008 µM
EC50 (mouse GRPR): > 3 µM
EC50 (mouse NMBR): > 3 µM

CC(C)COc1cccc(CC(=O)N2CCNc3nc(C(F)(F)F)ccc3[C@H]2CC(=O)O)c1 [9G, [(5R)-4-([3-(2-methylpropoxy)phenyl]acetyl)-8-(trifluoromethyl)-2,3,4,5-tetrahydro-1H-pyrido[2,3-e][1, 4]diazepin-5-yl]acetic acid]
affinity greater than MK-5046 (human BRS-3 [1]): 1.5 fold
IC50/ EC50 hBRS-3/BALB (human BRS-3 [2]; binding IC50 over [3H]IP EC50, hBRS-3/BALB cells, measure of receptor spareness): 7.6
EC50 (human BRS-3 [2]): 0.009 µM
EC50 (human BRS-3 [2]; listed as 9 G): 0.0092 ± 0.00039 µM
EC50 (human GRPR): > 3 µM
EC50 (human NMBR): > 3 µM
less potent than MK-5046 (rat BRS-3; rBRS-3/BALB cells): 165 fold
EC50 (rat BRS-3): 0.0379 ± 0.0008 µM
EC50 (rat GRPR): > 3 µM
EC50 (rat NMBR): > 3 µM
less potent than MK-5046 (mouse BRS-3; mBRS-3/BALB cells): 3.5–3.8 fold and 4 fold
EC50 (mouse BRS-3): 0.0201 ± 0.0009 µM
EC50 (mouse GRPR): > 3 µM
EC50 (mouse NMBR): > 3 µM

Source: PMC5461819 (Peptides, 2015)
